The values that follow come from publication PMC9351465, “Mechanism-based heparanase inhibitors reduce cancer metastasis in vivo” (Proceedings of the National Academy of Sciences of the …, 2022).

The subject of one assay is 4T1 breast cancer cells. The assay is described as follows: 4T1 murine mammary carcinoma lung metastasis model (luciferase imaging). In kind it is in vivo, mouse. Conditions: Balb/c mice, i.p. 300 nmol 2 or 150 μg SST0001, then i.v. 4T1-Luc cells with 2 nmol 2 or 10 μg SST0001; 14 d. On the procedure: Since HPSE drives metastasis in multiple cancer types, we tested 2 against another metastasis model—4T1 murine mammary carcinoma, which also migrates to the lungs. Here, we were aided by a constitutive luciferase expressing 4T1 line, enabling real-time tracking of cancer growth by chemiluminescent imaging. Similar to the B16 model, mice were dosed i.p. with 300 nmol of 2 or 150 μg SST0001, followed by i.v. injection of 4T1-Luc cells alongside 2 nmol 2 or 10 μg SST0001.
B16-BL6 melanoma cells/mouse in a volume of 100 µL, alongside 20 µM 2 or 10 µg SST0001.
Mice were sacrificed after 14 days and the lungs were dissected, photographed and evaluated for the number of metastatic foci/lung. Plots and statistical analyses were carried out in Prism […]
(§1) Bioluminescence imaging of lung metastases produced by luciferase-expressing 4T1 cells was carried out using a highly sensitive, cooled charge-coupled device camera assembled in a specimen box (IVIS; Xenogen Corp, Hopkinton, MA). […] The tumor burden was quantified using Living Image software (Xenogen) (12, 13). […]
(§2) CAG myeloma - Luciferase-labeled CAG human myeloma cells (3x106) were injected into the tail vein of NOD/SCID mice. […] Tumor burden was quantified using Living Image software. […]

In the next assay the test system is CAG myeloma cancer cells. The assay is described as follows: CAG myeloma xenograft bone metastasis model (luciferase imaging). In kind it is in vivo, mouse. Conditions: NOD/SCID mice.
Source text: Finally, we examined a CAG myeloma xenograft model, which faithfully recapitulates the invasion of multiple myeloma to the bone marrow. We compared the efficacy of 2 to bortezomib, a proteasome inhibitor and standard treatment for multiple myeloma and lymphomas, and also explored the possibility of synergistic proteasomal and HPSE inhibitor treatment. In contrast to the single initial dose regimens used for B16 and 4T1, a continuous dosing regimen was used in this assay to gauge the efficacy of 2 over longer treatment periods. Following injection of luciferase expressing CAG cells, mice were treated with a course of 2 (300 nmol/day i.p.), bortezomib (0.5 mg/kg twice weekly i.p.), or a combination of both compounds. […]
Mice were sacrificed after 14 days and the lungs were dissected, photographed and evaluated for the number of metastatic foci/lung. […]
as §1, §2

A further assay deals with U87 glioblastoma cells. Put plainly: Matrigel invasion assay. In kind it is cell-based, human. The settings on record: 20 µM inhibitor, 4 h. On the procedure:
Preliminary in cellulo evaluations of our inhibitors’ effects on cancer aggression were conducted using a Matrigel invasion assay, which measures the ability of cells to migrate through transwell inserts coated with the ECM material Matrigel. Matrigel invasion by cells requires a broad complement of proteases and glycosidases, thereby mimicking some aspects of metastasis in vivo ([51]).
For HS-degradation assays, ECM coated dishes were incubated with 200 ng recombinant HPSE in 1 mL reaction mixture (10 mM buffer Phosphate-Citrate pH 6.0, 50 mM NaCl, 1 mM DTT, 1 mM CaCl2) containing HPSE inhibitors or DMSO control. Plates were incubated at 37°C for 5 h, then assay medium collected and applied to a 0.9×30 cm Sepharose 6B size exclusion column. The Sepharose 6B column was eluted with PBS, and 35S radioactivity of 0.2 mL fractions quantitated using a liquid scintillation analyzer (Packard BioScience) (11). […]
Cells in the upper chamber were separated by Matrigel from a lower chamber containing 600 µL DMEM, supplemented with 10% FBS. […] 10 randomly selected microscopic fields were recorded, and cell invasion calculated using ImageJ, by quantitating the percentage of the field stained by crystal violet. […]

Each structure is given as a SMILES string.

As for `CC(=O)N[C@H]1[C@@H](O[C@H]2[C@H](O)[C@@H](O)[C@@H]3O[C@@H]3[C@@H]2C(=O)O)O[C@H](CO)[C@@H](O)[C@@H]1O` [compound 2], the “lung metastases (bioluminescent flux)” value with 4T1 breast cancer cells was “marked reduction in lung metastases”. The “metastatic burden (bioluminescent flux)” value with CAG myeloma cancer cells (2 300 nmol/day i.p., bortezomib 0.5 mg/kg twice weekly i.p., imaging over time) is reported as “moderate reduction in metastatic burden”. Also, the “antimetastatic efficacy at 33 d timepoint” value in the assay on CAG myeloma cancer cells (continuous dosing, 33 d) was “somewhat reduced efficacy following prolonged treatment”. Also, the “Matrigel invasion (% field stained)” value with U87 glioblastoma cells was “significantly reduced Matrigel invasion”.
